Experimental data from paper PMC5898815 (Journal of medicinal chemistry, 2018).
Where two headings read alike, the source gives them in different places.

Tests used:
[1] = PAMPA permeability; assay type: in vitro ADME
[2] = target: DCN1-UBE2M protein-protein interaction (Homo sapiens, UniProt Q96GG9); assay type: binding
[3] = target: RBX1 (Homo sapiens, UniProt P62877); test: DCN1-independent neddylation of cullins catalyzed solely by RBX1; assay type: biochemical
[4] = target: T1, DCN1 (Homo sapiens, UniProt Q96GG9); assay type: cell-based; details: HCC95 cells, 10 μM, 1 h, 53 °C
Target sequence in this assay (Q96GG9 whole entry): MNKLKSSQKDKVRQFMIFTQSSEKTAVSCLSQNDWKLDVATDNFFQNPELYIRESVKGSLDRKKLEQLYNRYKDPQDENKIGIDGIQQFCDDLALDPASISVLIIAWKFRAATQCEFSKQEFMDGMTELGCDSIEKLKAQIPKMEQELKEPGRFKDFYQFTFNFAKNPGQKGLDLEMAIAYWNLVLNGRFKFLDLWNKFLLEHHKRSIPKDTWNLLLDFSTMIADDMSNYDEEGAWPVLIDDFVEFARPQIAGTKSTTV

[5] = target: UBE2M (N-acetylated) (Homo sapiens) (UniProt P61081); details: cited from earlier work
Sequence of UBE2M (N-acetylated) (Homo sapiens) (P61081 whole entry): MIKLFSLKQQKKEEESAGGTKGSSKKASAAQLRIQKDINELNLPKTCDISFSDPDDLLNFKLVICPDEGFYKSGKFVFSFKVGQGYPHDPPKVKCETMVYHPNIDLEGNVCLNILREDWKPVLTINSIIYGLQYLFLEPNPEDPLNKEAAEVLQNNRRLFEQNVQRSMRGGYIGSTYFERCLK

[6] = tested on: HCC95 cells; test: In vitro proliferation assay, HCC95 cells; assay type: cell-based
[7] = tested on: DCN3-5; test: Pulse-chase isoform selectivity, NEDD8 transfer from UBE2M to CUL2; assay type: biochemical, human; details: at 50 μM
[8] = target: T2, NEDD8 E1 enzyme (Homo sapiens, UniProt Q13564+Q8TBC4); test: Inhibition of the NEDD8 E1 activating enzyme; assay type: biochemical; details: concentrations as high as 50 μM
T2 sequence (Q8TBC4 1-463): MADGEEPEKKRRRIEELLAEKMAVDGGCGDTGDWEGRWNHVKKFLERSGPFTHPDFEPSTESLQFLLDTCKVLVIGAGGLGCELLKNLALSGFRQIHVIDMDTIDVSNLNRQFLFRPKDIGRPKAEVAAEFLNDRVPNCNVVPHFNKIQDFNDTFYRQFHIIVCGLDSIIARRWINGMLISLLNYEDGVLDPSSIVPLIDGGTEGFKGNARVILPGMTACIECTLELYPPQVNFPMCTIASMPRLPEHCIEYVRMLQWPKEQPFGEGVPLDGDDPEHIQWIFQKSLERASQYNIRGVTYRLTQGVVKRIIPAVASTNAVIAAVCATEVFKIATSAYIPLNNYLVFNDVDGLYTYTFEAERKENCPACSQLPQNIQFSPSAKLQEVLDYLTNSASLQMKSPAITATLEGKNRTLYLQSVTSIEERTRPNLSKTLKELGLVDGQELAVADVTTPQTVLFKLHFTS
T2 sequence (Q13564 1-534): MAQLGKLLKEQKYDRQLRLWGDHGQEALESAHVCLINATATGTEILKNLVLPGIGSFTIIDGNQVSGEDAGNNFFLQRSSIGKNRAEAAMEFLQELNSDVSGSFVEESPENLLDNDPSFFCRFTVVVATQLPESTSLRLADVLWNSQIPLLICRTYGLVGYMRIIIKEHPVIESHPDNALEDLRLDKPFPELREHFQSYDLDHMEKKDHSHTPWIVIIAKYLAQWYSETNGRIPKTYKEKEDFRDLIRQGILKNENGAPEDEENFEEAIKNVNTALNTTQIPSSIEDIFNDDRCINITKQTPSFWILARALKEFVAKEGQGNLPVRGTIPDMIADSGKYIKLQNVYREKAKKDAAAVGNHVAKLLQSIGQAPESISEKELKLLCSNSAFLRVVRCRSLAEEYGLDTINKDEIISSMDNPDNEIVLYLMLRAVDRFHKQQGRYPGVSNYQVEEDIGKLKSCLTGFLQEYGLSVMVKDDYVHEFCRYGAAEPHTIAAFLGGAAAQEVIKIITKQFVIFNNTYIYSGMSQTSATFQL

[9] = target: T1, DCN1; assay type: biochemical
Target sequence in this assay (Q96GG9 62-259 limits assumed): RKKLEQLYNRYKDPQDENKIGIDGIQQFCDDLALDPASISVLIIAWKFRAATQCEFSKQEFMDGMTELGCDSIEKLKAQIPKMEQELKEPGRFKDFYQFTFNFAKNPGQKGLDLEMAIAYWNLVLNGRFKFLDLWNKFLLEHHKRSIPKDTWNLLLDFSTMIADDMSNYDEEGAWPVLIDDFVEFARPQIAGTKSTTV

[10] = tested on: cullin neddylation in HCC95 cells; test: Western blot for inhibition of cellular cullin neddylation in HCC95 cells; assay type: cell-based; details: for Inhibition of cullin neddylation in HCC95 cells / Steady-state level of cullin neddylation for CUL1 and CUL3 / Steady-state level of cullin neddylation for CUL2, CUL4A and CUL5: 20 μM; for Inhibition of cullin neddylation in HCC95 cells: dosing at T = 0 and 24 hr, 48 hours; for Steady-state level of cullin neddylation for CUL1 and CUL3 / Steady-state level of cullin neddylation for CUL2, CUL4A and CUL5: HCC95 cells; for Accumulation of well-recognized proteasomal targets (immunoblot): acute pharmacological inhibition, Supplementary Figure 6
[11] = tested on: DCN1 and DCN2; test: Pulse-chase isoform selectivity, NEDD8 transfer from UBE2M to CUL2; assay type: biochemical, human; details: pulse-chase assay against all five DCN family members
[12] = tested on: total cellular ubiquitination; details: cited from earlier work

Sequence of RBX1 (P62877 whole entry, species assumed): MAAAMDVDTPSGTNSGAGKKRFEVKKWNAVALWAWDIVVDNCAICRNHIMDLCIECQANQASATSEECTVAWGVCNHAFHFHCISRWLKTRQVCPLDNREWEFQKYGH
Sequence of RBX1 (Q13617 whole entry partner, species assumed): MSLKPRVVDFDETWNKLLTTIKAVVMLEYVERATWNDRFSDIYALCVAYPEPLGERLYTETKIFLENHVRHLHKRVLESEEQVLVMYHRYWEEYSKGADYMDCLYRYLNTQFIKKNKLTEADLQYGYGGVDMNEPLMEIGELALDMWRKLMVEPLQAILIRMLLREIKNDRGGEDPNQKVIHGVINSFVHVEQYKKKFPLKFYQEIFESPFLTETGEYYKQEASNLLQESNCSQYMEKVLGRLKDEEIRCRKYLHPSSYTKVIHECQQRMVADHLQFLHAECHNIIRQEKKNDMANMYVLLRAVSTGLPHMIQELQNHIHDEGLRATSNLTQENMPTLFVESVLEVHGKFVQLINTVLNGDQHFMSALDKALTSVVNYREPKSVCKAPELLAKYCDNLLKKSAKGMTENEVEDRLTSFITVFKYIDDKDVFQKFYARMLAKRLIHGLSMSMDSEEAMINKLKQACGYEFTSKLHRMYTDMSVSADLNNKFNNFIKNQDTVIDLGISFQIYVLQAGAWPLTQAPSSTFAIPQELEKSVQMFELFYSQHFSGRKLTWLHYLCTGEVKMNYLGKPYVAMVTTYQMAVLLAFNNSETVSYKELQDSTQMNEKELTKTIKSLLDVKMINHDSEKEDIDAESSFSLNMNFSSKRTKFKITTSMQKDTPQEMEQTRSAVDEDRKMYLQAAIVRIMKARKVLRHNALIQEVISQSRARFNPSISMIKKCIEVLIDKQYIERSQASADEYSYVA
Sequence of DCN1-UBE2M protein-protein interaction (Q96GG9 62-259 limits assumed): as the sequence (Q96GG9 62-259 limits assumed) above
Sequence of DCN1 (from UniProt Q96GG9) (Q96GG9 whole entry): as the sequence (Q96GG9 whole entry) above

O=C(Nc1cccc(C(F)(F)F)c1)NC1CCN(Cc2cccc(F)c2)CC1 [Compound 18] showed a Pampa [1] greater than 0.0022 cm/s.
Compound CCCN1CCC(N(CC2CCCCC2)C(=O)Nc2cccc(C(F)(F)F)c2)CC1 [Compound 40] has a Pampa [1] greater than 0.0022 cm/s.
O=C(Nc1cccc(C(F)(F)F)c1)N(Cc1ccccc1)C1CCN(Cc2ccc3c(c2)OCO3)CC1 [Compound 70] showed a Pampa ([1]; mean ± SD) greater than 0.0022 cm/s.
In the case of CCCN1CCC(N(CCC)C(=O)Nc2cccc(C(F)(F)F)c2)CC1 [Compound 35], the Pampa [1] is reported as 1600 ±170 ×10^−6 cm/s.
With O=C(Nc1cccc(C(F)(F)F)c1)NC1CCN(Cc2ccccc2F)CC1 [Compound 15] the Pampa [1] was 1500 ± 1 ×10^−6 cm/s.
Compound Cc1ccc(CN2CCC(NC(=O)Nc3cccc(C(F)(F)F)c3)CC2)cc1 [Compound 19] has a Pampa [1] greater than 0.0022 cm/s.
For Cc1cccc(NC(=O)NC2CCN(Cc3ccccc3)CC2)c1 [Compound 26], the “Potency in the TR-FRET assay (in words)” value [2] was “practically inactive”.
For CCCN1CCC(N(Cc2cc(F)cc(C(F)(F)F)c2)C(=O)Nc2cccc(C(F)(F)F)c2)CC1 [Compound 46], the Pampa [1] was greater than 0.0022 cm/s and the “Inhibition of DCN1-independent neddylation of cullins catalyzed solely by RBX1” value (from here on “Inhibition … by RBX1”) [3] was “do not inhibit”.
In the case of O=C(Nc1cccc(C(F)(F)F)c1)NC1CCN(Cc2cccc(Cl)c2)CC1 [Compound 17], the Pampa [1] is reported as 1700 ± 1 ×10^−6 cm/s.
For Cc1ccccc1CN1CCC(NC(=O)Nc2cccc(C(F)(F)F)c2)CC1 [Compound 13], the Pampa [1] was 1200 ± 35 ×10^−6 cm/s.
CCCCN(C(=O)Nc1cccc(C(F)(F)F)c1)C1CCN(CCC)CC1 [Compound 36] showed a Pampa [1] greater than 0.0022 cm/s.
In the case of CCCCN1CCC(N(Cc2ccccc2)C(=O)Nc2cccnc2)CC1 [NAcM-NEG, reference compound], the “Thermal stability of the DCN1 protein (CETSA)” value (from here on “Thermal stability”) [4] is reported as “largely degraded”.
In the case of CCCN1CCC(N(Cc2ccc3c(c2)OCO3)C(=O)Nc2cccc(C(F)(F)F)c2)CC1 [Compound 45, 1-(benzo[d][1,3]dioxol-5-ylmethyl)-1-(1-propylpiperidin-4-yl)-3-(3-(trifluoromethyl)phenyl)urea], the Pampa [1] is reported as greater than 0.0022 cm/s.
For CCCN1CCC(N(Cc2cccnc2)C(=O)Nc2cccc(C(F)(F)F)c2)CC1 [Compound 43], the Pampa [1] was 1300 ±79 ×10^−6 cm/s.
Work on CCCS(=O)(=O)N1CCC(N(Cc2ccccc2)C(=O)Nc2cccc(C(F)(F)F)c2)CC1 [Compound 61] yielded a Pampa [1] of less than 1e-06 cm/s.
In the case of DCN1 (from UniProt Q96GG9), the Kd [5] is listed as 1000 nM.
For CCCC(C)N1CCC(N(Cc2ccccc2)C(=O)Nc2cccc(C(F)(F)F)c2)CC1 (stereo not shown) [Compound 52, 1-benzyl-1-(1-(pentan-2-yl)piperidin-4-yl)-3-(3-(trifluoromethyl)phenyl)urea], the Pampa [1] was 1400 ±39 ×10^−6 cm/s, the “Growth inhibition of monolayer cultures at 20 μM” value [6] was “only minimally growth inhibitory” and the “Inhibition of neddylation activity of DCN3-5” value [7] was “slight activity”. The “Inhibition of the E1 activating enzyme for NEDD8” value [8] was “do not inhibit”, the “Inhibition of DCN1 stimulated NEDD8 transfer from UBE2F to the cullins” value [9] was “inhibit” and the “Inhibition … by RBX1” value [3] was “do not inhibit”. The “Thermal stability” value [4] was “clearly enhanced”, the “Inhibition of cullin neddylation in HCC95 cells” value [10] was “inhibited neddylation” and the “Steady-state level of cullin neddylation for CUL1 and CUL3” value [10] was “selectively decreases”. For the same compound, the “Steady-state level of cullin neddylation for CUL2, CUL4A and CUL5” value [10] was “relatively unaffected” and the “Accumulation of well-recognized proteasomal targets (immunoblot)” value [10] was “failed to cause gross accumulation”.
Compound O=C(Nc1cccc(C(F)(F)F)c1)N(Cc1ccccc1)C1CCN(CC2CCCCC2)CC1 [Compound 58] has a Pampa [1] of less than 1e-06 cm/s.
For CCCN1CCC(N(Cc2ccccc2)C(=O)Nc2cccc(C(F)(F)F)c2)CC1 [Compound 42], the Pampa [1] was 1800 ± 1 ×10^−6 cm/s and the “Selectivity for inhibiting neddylation activity of DCN1 and DCN2 over DCN3-5” value [11] was “selective and approximately equipotent inhibition”.
With CCCCN1CCC(N(Cc2ccccc2)C(=O)Nc2cccc(C(F)(F)F)c2)CC1 [Compound 49, 1-benzyl-1-(1-butylpiperidin-4-yl)-3-(3-(trifluoromethyl)phenyl)urea] the Pampa [1] was greater than 0.0022 cm/s, the “Growth inhibition of monolayer cultures at 20 μM” value [6] was “only minimally growth inhibitory” and the “Inhibition of the E1 activating enzyme for NEDD8” value [8] was “do not inhibit”. The “Inhibition of DCN1 stimulated NEDD8 transfer from UBE2F to the cullins” value [9] was “inhibit”, the “Inhibition … by RBX1” value [3] was “do not inhibit” and the “Thermal stability” value [4] was “clearly enhanced”. For the same compound, the “Inhibition of cullin neddylation in HCC95 cells” value [10] was “inhibited neddylation”, the “Steady-state level of cullin neddylation for CUL1 and CUL3” value [10] was “selectively decreases” and the “Steady-state level of cullin neddylation for CUL2, CUL4A and CUL5” value [10] was “relatively unaffected”. The “Accumulation of well-recognized proteasomal targets (immunoblot)” value [10] was “failed to cause gross accumulation”.
O=C(Nc1cccc(C(F)(F)F)c1)N(Cc1ccccc1)C1CCN(Cc2cccnc2)CC1 [Compound 67] gave a Pampa ([1]; mean ± SD) greater than 0.0022 cm/s.
In the case of O=C(Nc1cccc(C(F)(F)F)c1)N(Cc1ccccc1)C1CCN(Cc2ccc(F)cc2)CC1 [Compound 68], the Pampa ([1]; mean ± SD) is reported as greater than 0.0022 cm/s.
In the case of CC(C)(C)N1CCC(N(Cc2ccc3c(c2)OCO3)C(=O)Nc2cccc(C(F)(F)F)c2)CC1 [Compound 73], the “Inhibition … by RBX1” value [3] is reported as “do not inhibit”.
With O=C(Nc1ccccc1)NC1CCN(Cc2ccccc2)CC1 [Compound 23] the Pampa [1] was 1400 ± 250 ×10^−6 cm/s.
With CCCN1CCC(N(Cc2ccco2)C(=O)Nc2cccc(C(F)(F)F)c2)CC1 [Compound 41] the Pampa [1] was greater than 0.0022 cm/s.
For Cn1nccc1-c1cccc(NC(=O)NC2CCN(Cc3ccccc3)CC2)c1 [Compound 32], the Pampa [1] was greater than 0.0022 cm/s.
With CCCCCN1CCC(N(Cc2ccccc2)C(=O)Nc2cccc(C(F)(F)F)c2)CC1 [Compound 50] the Pampa [1] was 1400 ± 540 ×10^−6 cm/s.
Work on O=C(Nc1cccc(C(F)(F)F)c1)NC1CCN(Cc2ccc(F)cc2)CC1 [Compound 21] yielded a Pampa [1] greater than 0.0022 cm/s.
In the case of Cc1ccc(NC(=O)NC2CCN(Cc3ccccc3)CC2)cc1Cl [Compound 25], the Pampa [1] is reported as greater than 0.0022 cm/s.
In the case of NS(=O)(=O)OC[C@@H]1C[C@@H](n2ccc3c(N[C@H]4CCc5ccccc54)ncnc32)C[C@@H]1O [Pevonedistat, reference compound], the “Inhibition of cullin neddylation in cells by positive control” value ([10]; MLN4924 1 μM, single dose, 48 hours (Figure 7)) is listed as “completely inhibits all cullin neddylation” and the “Reduction of total cellular ubiquitination” value [12] is listed as 10-20%.
Work on Cc1cccc(CN2CCC(NC(=O)Nc3cccc(C(F)(F)F)c3)CC2)c1 [Compound 16] yielded a Pampa [1] greater than 0.0022 cm/s.
With CCCN1CCC(N(CCC(C)C)C(=O)Nc2cccc(C(F)(F)F)c2)CC1 [Compound 38] the Pampa [1] was 1500 ±5.4 ×10^−6 cm/s.
With O=C(Nc1cccc(C(F)(F)F)c1)N(Cc1ccccc1)C1CCNCC1 [Compound 47] the Pampa [1] was greater than 0.0022 cm/s.
For CCCN1CCC(N(CCOC)C(=O)Nc2cccc(C(F)(F)F)c2)CC1 [Compound 39], the Pampa [1] was 1600 ± 1 ×10^−6 cm/s.
Work on CCCCS(=O)(=O)N1CCC(N(Cc2ccccc2)C(=O)Nc2cccc(C(F)(F)F)c2)CC1 [Compound 62] yielded a Pampa [1] of less than 1e-06 cm/s.
With O=C(Nc1cccc(C(F)(F)F)c1)N(Cc1ccccc1)C1CCN(Cc2ccc3c(c2)OCCO3)CC1 [Compound 71] the Pampa ([1]; mean ± SD) was greater than 0.0022 cm/s.
In the case of CCCN1CCC(N(CC(C)C)C(=O)Nc2cccc(C(F)(F)F)c2)CC1 [Compound 37], the Pampa [1] is reported as 1900±200 ×10^−6 cm/s.
In the case of O=C(Nc1cccc(C(F)(F)F)c1)NC1CCN(Cc2ccc(Cl)cc2)CC1 [Compound 20], the Pampa [1] is reported as 1300 ± 43 ×10^−6 cm/s.
For CC(=O)O[C@H]1CN(Cc2ccccc2)CC[C@@H]1NC(=O)Nc1cccc(C(F)(F)F)c1 [Compound 34, (3S,4S)-1-benzyl-4-(3-(3-(trifluoromethyl)phenyl)ureido)piperidin-3-yl acetate], the “Potency in the TR-FRET assay (in words)” value [2] was “did not possess improved potency compared to our initial HTS hit 1”.
